Measurements: PMC6277767, “Broad and Region-Specific Impacts of the Synthetic Cannabinoid CP 55,940 in Adolescent and Adult Female Mouse Brains” (Frontiers in Molecular Neuroscience, 2018)

Tested on: CD1 female mouse brain lipidome
Test: Brain-region lipid levels (HPLC/MS/MS lipidomics) 2 h after single i.p. 3 mg/kg CP 55,940 vs vehicle
Format: in vivo
Method: The Bloomington Institutional Animal Care and Use Committee of Indiana University reviewed and approved the animal procedures. Female mice from the CD1 strain were utilized to match our study examining THC’s effects on the brain lipidome ([Leishman et al., 2018]). Mice were given a single i.p. injection of either 3 mg/kg CP or 1:1:18 cremophor:ethanol:saline vehicle (please refer to the section “3 mg/kg CP Is Relevant for Synthetic Cannabinoid Abuse and Has Stronger Effects on the Female Mouse Brain Lipidome During Adolescence” for a justification of dose and use of female mice). Three different age groups were given injections: PND 35 and PND 50 adolescents, and adult mice (PND 113). At least eight mice in each age group received CP and at least eight received vehicle. Matching the THC study time course ([Leishman et al., 2018]), mice were sacrificed via rapid decapitation 2 h after injection. Brains were immediately removed and flash-frozen in liquid nitrogen, and then stored at -80°C until dissections were performed. Brains were dissected on an ice-cold dissection plate into the following regions: STR, HIPP, CER, THAL, CTX, HYP, MID, and STEM. These abbreviations for these brain areas will be used exclusively when discussing the results generated by these specific dissections. Each dissected area was immediately placed in liquid nitrogen and then stored at -80°C until used for lipid extraction.
Tissue extracts were performed as previously described ([Bradshaw et al., 2006]; [Stuart et al., 2013]; [Raboune et al., 2014]; [Leishman et al., 2016a],[b], [2017], [2018]). First, samples were shock frozen in liquid nitrogen, weighed, and transferred to a centrifuge tube. The mass of the largest sample was multiplied by 50 to determine how many milliliters of HPLC-grade methanol (Fisher, Fair Lawn, NJ, United States) to add. Then, samples were spiked with 500 pmol deuterium-labeled NAGly (d8NAGly; Cayman Chemical, Ann Arbor, MI, United States). Samples were placed on ice in darkness for 2 h then individually homogenized and centrifuged at 19,000 × g for 20 min at 20°C. Supernatants were diluted with HPLC water (purified in house) to make a solution of 75% water, 25% supernatant. Lipids were partially purified on C18 solid phase extraction columns (Agilent, Palo Alto, CA, United States). A series of four elutions with 1.5 mL of 60%, 75%, 85%, and 100% methanol were collected ([Stuart et al., 2013]; [Leishman et al., 2016a],[b], [2018]).
As previously described ([Bradshaw et al., 2006]; [Tan et al., 2006]; [Smoum et al., 2010]; [Stuart et al., 2013]; [Tortoriello et al., 2013]; [Raboune et al., 2014]; [Leishman et al., 2016a],[b], [2017], [2018]), samples were analyzed using an Applied Biosystems API 3000 triple quadrupole mass spectrometer with electrospray ionization (Foster City, CA, United States). Using an Agilent XDB-C18 reversed phase analytical column and optimized mobile phase gradients, 20 μL from each elution were chromatographed. Two Shimadzu 10ADvp pumps (Columbia, MD, United States) provided the pressure for gradient elution. Mobile phase A: 20% methanol, 80% water (v/v) and 1 mM ammonium acetate (Sigma, St. Louis, MO, United States). Mobile phase B: 100% methanol, 1 mM ammonium acetate. Every method run began with 0% mobile phase B, reached 100% mobile phase B flowing at 0.2 mL/min, and gradually returned to 0% mobile phase B.
This screening library will be referred to as the lipidome when discussing data from this study. HPLC/MS/MS data were analyzed using Analyst software (Applied Biosystems) ([Bradshaw et al., 2006]; [Tan et al., 2006]; [Stuart et al., 2013]; [Tortoriello et al., 2013]; [Raboune et al., 2014]; [Leishman et al., 2016a],[b], [2017], [2018]). Chromatograms (Supplementary Figure 3) were generated by determining the retention time of analytes from the analytical column with a [M-1] or [M+1] parent peak and a fragmentation peak corresponding to the programmed values. […]

[1] = PND 35 midbrain, 3mg/kg, one-way ANOVA

SMILES: CCCCCCC(C)(C)c1ccc([C@@H]2C[C@H](O)CC[C@H]2CCCO)c(O)c1 [CP 55,940]
- N-docosahexaenoyl methionine: Magnitude (x Veh level) (PND 35 midbrain, 3mg/kg): 0.77 x Veh level
- N-docosahexaenoyl serine: Magnitude (x Veh level) (PND 35 midbrain, 3mg/kg): 0.77 x Veh level
- N-docosahexaenoyl tyrosine: Magnitude (x Veh level) (PND 35 midbrain, 3mg/kg): 0.79 x Veh level
- N-docosahexaenoyl valine: Magnitude (x Veh level) (PND 35 midbrain, 3mg/kg): 1.67 x Veh level
- N-linoleoyl ethanolamine: Magnitude (x Veh level) (PND 35 midbrain, 3mg/kg): 1.24 x Veh level
- N-oleoyl GABA: Magnitude (x Veh level) (PND 35 midbrain, 3mg/kg): 0.81 x Veh level
- N-oleoyl ethanolamine: Magnitude (x Veh level) (PND 35 midbrain, 3mg/kg): 0.85 x Veh level
- N-oleoyl phenylalanine: Magnitude (x Veh level) (PND 35 midbrain, 3mg/kg): 1.11 x Veh level
- N-oleoyl valine: Magnitude (x Veh level) (PND 35 midbrain, 3mg/kg): 1.48 x Veh level
- N-palmitoyl leucine: Magnitude (x Veh level) (PND 35 midbrain, 3mg/kg): 1.40 x Veh level
- N-palmitoyl phenylalanine: Magnitude (x Veh level) (PND 35 midbrain, 3mg/kg): 1.31 x Veh level
- N-palmitoyl valine: Magnitude (x Veh level) (PND 35 midbrain, 3mg/kg): 1.83 x Veh level
- N-stearoyl methionine: Magnitude (x Veh level) (PND 35 midbrain, 3mg/kg): 1.15 x Veh level
- N-stearoyl tyrosine: Magnitude (x Veh level) (PND 35 midbrain, 3mg/kg): 0.82 x Veh level
- N-stearoyl valine: Magnitude (x Veh level) (PND 35 midbrain, 3mg/kg): 1.40 x Veh level
- PGE2: Magnitude (x Veh level) (PND 35 midbrain, 3mg/kg): 1.15 x Veh level
- PGF2α: Magnitude (x Veh level) (PND 35 midbrain, 3mg/kg): 1.22 x Veh level
- phoshoLEA: Magnitude (x Veh level) (PND 35 midbrain, 3mg/kg): 1.41 x Veh level
- 2-linoleoyl glycerol: Direction (rel to Veh) [1]: ↓
- 6-ketoPGF1α: Direction (rel to Veh) [1]: ↓
- Arachidonic acid: Direction (rel to Veh) [1]: ↓
- N-arachidonoyl GABA: Direction (rel to Veh) [1]: ↓
- N-arachidonoyl alanine: Direction (rel to Veh) [1]: ↓
- N-arachidonoyl glycine: Direction (rel to Veh) [1]: ↓
- N-arachidonoyl serine: Direction (rel to Veh) [1]: ↓
- N-arachidonoyl taurine: Direction (rel to Veh) [1]: ↓
- N-arachidonoyl tyrosine: Direction (rel to Veh) [1]: ↓
- N-docosahexaenoyl GABA: Direction (rel to Veh) [1]: ↓
- N-docosahexaenoyl alanine: Direction (rel to Veh) [1]: ↓
- N-docosahexaenoyl glycine: Direction (rel to Veh) [1]: ↓
- N-docosahexaenoyl leucine: Direction (rel to Veh) [1]: ↑
- N-docosahexaenoyl methionine: Direction (rel to Veh) [1]: ↓
- N-docosahexaenoyl serine: Direction (rel to Veh) [1]: ↓
- N-docosahexaenoyl tyrosine: Direction (rel to Veh) [1]: ↓
- N-docosahexaenoyl valine: Direction (rel to Veh) [1]: ↑
- N-linoleoyl ethanolamine: Direction (rel to Veh) [1]: ↑
- N-oleoyl GABA: Direction (rel to Veh) [1]: ↓
- N-oleoyl ethanolamine: Direction (rel to Veh) [1]: ↓
- N-oleoyl phenylalanine: Direction (rel to Veh) [1]: ↑
- N-oleoyl valine: Direction (rel to Veh) [1]: ↑
- N-palmitoyl leucine: Direction (rel to Veh) [1]: ↑
- N-palmitoyl phenylalanine: Direction (rel to Veh) [1]: ↑
- N-palmitoyl valine: Direction (rel to Veh) [1]: ↑
- N-stearoyl methionine: Direction (rel to Veh) [1]: ↑
- N-stearoyl tyrosine: Direction (rel to Veh) [1]: ↓
- N-stearoyl valine: Direction (rel to Veh) [1]: ↑
- PGE2: Direction (rel to Veh) [1]: ↑
- PGF2α: Direction (rel to Veh) [1]: ↑
- phoshoLEA: Direction (rel to Veh) [1]: ↑
- 2-arachidonoyl-sn-glycerol mean level (PND 35 striatum): 8.26E-11 moles per gram
- 2-linoleoyl-sn-glycerol mean level (PND 35 striatum): 6.79E-11 moles per gram
- 2-oleoyl-sn-glycerol mean level (PND 35 striatum): 6.52E-10 moles per gram
- 2-palmitoyl-sn-glycerol mean level (PND 35 striatum): 3.66E-10 moles per gram
- 6-ketoPGF1α mean level (PND 35 striatum): 5.31E-12 moles per gram
- Arachidonic acid mean level (PND 35 striatum): 1.87E-09 moles per gram
- Linoleic acid mean level (PND 35 striatum): 4.78E-10 moles per gram
- N- stearoyl valine mean level (PND 35 striatum): 4.54E-13 moles per gram
- N-arachidonoyl GABA mean level (PND 35 striatum): 7.34E-12 moles per gram
- N-arachidonoyl alanine mean level (PND 35 striatum): 7.95E-12 moles per gram
- N-arachidonoyl ethanolamine mean level (PND 35 striatum): 1.25E-11 moles per gram
- N-arachidonoyl glycine mean level (PND 35 striatum): 2.49E-11 moles per gram
- N-arachidonoyl phenylalanine mean level (PND 35 striatum): 5.08E-13 moles per gram
- N-arachidonoyl serine mean level (PND 35 striatum): 2.14E-12 moles per gram
- N-arachidonoyl taurine mean level (PND 35 striatum): 4.32E-11 moles per gram
- N-arachidonoyl tyrosine mean level (PND 35 striatum): 3.18E-13 moles per gram
- N-docosahexaenoyl GABA mean level (PND 35 striatum): 7.6E-13 moles per gram
- N-docosahexaenoyl alanine mean level (PND 35 striatum): 3E-12 moles per gram
- N-docosahexaenoyl ethanolamine mean level (PND 35 striatum): 1.6E-11 moles per gram
- N-docosahexaenoyl glycine mean level (PND 35 striatum): 1.04E-11 moles per gram
- N-docosahexaenoyl leucine mean level (PND 35 striatum): 5.34E-13 moles per gram
- N-docosahexaenoyl phenylalanine mean level (PND 35 striatum): 5.57E-13 moles per gram
- N-docosahexaenoyl serine mean level (PND 35 striatum): 9.97E-12 moles per gram
- N-linoleoyl alanine mean level (PND 35 striatum): 1.57E-12 moles per gram
- N-linoleoyl ethanolamine mean level (PND 35 striatum): 3.02E-11 moles per gram
- N-linoleoyl glycine mean level (PND 35 striatum): 1.9E-12 moles per gram
- N-linoleoyl serine mean level (PND 35 striatum): 4.58E-11 moles per gram
- N-oleoyl GABA mean level (PND 35 striatum): 1.45E-12 moles per gram
- N-oleoyl alanine mean level (PND 35 striatum): 6.67E-12 moles per gram
- N-oleoyl ethanolamine mean level (PND 35 striatum): 6.1E-11 moles per gram
- N-oleoyl glycine mean level (PND 35 striatum): 1.1E-11 moles per gram
- N-oleoyl leucine mean level (PND 35 striatum): 1.08E-12 moles per gram
- N-oleoyl methionine mean level (PND 35 striatum): 9.72E-13 moles per gram
- N-oleoyl phenylalanine mean level (PND 35 striatum): 6.72E-13 moles per gram
- N-oleoyl serine mean level (PND 35 striatum): 2.35E-10 moles per gram
- N-oleoyl tyrosine mean level (PND 35 striatum): 1.91E-13 moles per gram
- N-oleoyl valine mean level (PND 35 striatum): 3.53E-13 moles per gram
- N-palmitoyl GABA mean level (PND 35 striatum): 3.96E-12 moles per gram
- N-palmitoyl alanine mean level (PND 35 striatum): 1.47E-11 moles per gram
- N-palmitoyl ethanolamine mean level (PND 35 striatum): 3.18E-11 moles per gram
- N-palmitoyl glycine mean level (PND 35 striatum): 2.93E-11 moles per gram
- N-palmitoyl leucine mean level (PND 35 striatum): 2.54E-12 moles per gram
- N-palmitoyl methionine mean level (PND 35 striatum): 1.86E-12 moles per gram
- N-palmitoyl phenylalanine mean level (PND 35 striatum): 1.48E-12 moles per gram
- N-palmitoyl proline mean level (PND 35 striatum): 1.03E-12 moles per gram
- N-palmitoyl serine mean level (PND 35 striatum): 3.33E-11 moles per gram
- N-palmitoyl tryptophan mean level (PND 35 striatum): 2.09E-13 moles per gram
- N-palmitoyl tyrosine mean level (PND 35 striatum): 3.84E-13 moles per gram
- N-palmitoyl valine mean level (PND 35 striatum): 9.76E-13 moles per gram
- N-stearoyl GABA mean level (PND 35 striatum): 3.5E-12 moles per gram
- N-stearoyl alanine mean level (PND 35 striatum): 1.12E-11 moles per gram
- N-stearoyl ethanolamine mean level (PND 35 striatum): 9E-12 moles per gram
- N-stearoyl glycine mean level (PND 35 striatum): 1.64E-11 moles per gram
